Measured values from patent publication US20080039422A1, “Vitamin B12-Containing Compositions and Methods of Use” (Transition Therapeutics Inc., priority 2004, published 2008).

Tests used:
[1] = Stability of CN-Cbl solutions stored at room temperature (3 days, 2 weeks); type: physicochemical
Method: To determine the stability of the various solutions, the clarified stocks were aliquoted into fresh tubes and stored at room temperature, protected from light, for up to two weeks. Prior to measuring the concentrations of CN-Cbl on subsequent occasions, the tubes were centrifuged for ten minutes at rcf 16,100. The concentration of CN-Cbl was measured as described above by spectrophotometry.
In the experiments described above, the concentration of CN-Cbl was measured within an hour or two after the components of the solutions were initially combined. To determine the stability of the preparations, the concentrations of CN-Cbl were measured in individual excipients after three days and the concentrations of CN-Cbl in combined excipients were measured after two weeks. Tables 3A-3B are tables showing the concentrations of CN-Cbl (mg/ml) in various solutions after three days incubation at room temperature. Solutions containing 0-60% propylene glycol (Table 3A) and solutions containing 0-40% ethanol (Table 3B) were challenged with 50, 75, 100, and 125 mg/ml CN-Cbl. Table 4 is a table showing the concentrations of CN-Cbl in excipients containing ethanol and propylene glycol after two weeks incubation at room temperature. The solutions were challenged with either 50 or 75 mg/ml CN-Cbl and the excipients contained ethanol (10, 15, or 20%) and propylene glycol (20, 30, or 40%). […] Regardless of the diminution in concentration over time, however, it was hypothesized that the initial concentrations of CN-Cbl could be restored with an additional application of energy (e.g., mixing, heating, or both mixing and heating; see below).

[2] = reported, cited from earlier work

concentration of CN-Cbl ([1]; After 3 days at Room Temperature, challenge 50 mg/ml, PG 60% v/v): 51500 µg/mL
concentration of CN-Cbl ([1]; After 3 days at Room Temperature, challenge 75 mg/ml, PG 0% v/v): 15000 µg/mL
concentration of CN-Cbl ([1]; After 3 days at Room Temperature, challenge 75 mg/ml, PG 10% v/v): 20100 µg/mL
concentration of CN-Cbl ([1]; After 3 days at Room Temperature, challenge 75 mg/ml, PG 20% v/v): 25800 µg/mL
concentration of CN-Cbl ([1]; After 3 days at Room Temperature, challenge 75 mg/ml, PG 30% v/v): 30500 µg/mL
concentration of CN-Cbl ([1]; After 3 days at Room Temperature, challenge 75 mg/ml, PG 40% v/v): 40500 µg/mL
concentration of CN-Cbl ([1]; After 3 days at Room Temperature, challenge 75 mg/ml, PG 50% v/v): 67000 µg/mL
concentration of CN-Cbl ([1]; After 3 days at Room Temperature, challenge 75 mg/ml, PG 60% v/v): 75800 µg/mL
concentration of CN-Cbl ([1]; After 3 days at Room Temperature, challenge 100 mg/ml, PG 0% v/v): 14900 µg/mL
concentration of CN-Cbl ([1]; After 3 days at Room Temperature, challenge 100 mg/ml, PG 10% v/v): 19500 µg/mL
concentration of CN-Cbl ([1]; After 3 days at Room Temperature, challenge 100 mg/ml, PG 20% v/v): 25000 µg/mL
concentration of CN-Cbl ([1]; After 3 days at Room Temperature, challenge 100 mg/ml, PG 30% v/v): 28800 µg/mL
concentration of CN-Cbl ([1]; After 3 days at Room Temperature, challenge 100 mg/ml, PG 40% v/v): 37600 µg/mL
concentration of CN-Cbl ([1]; After 3 days at Room Temperature, challenge 100 mg/ml, PG 50% v/v): 55900 µg/mL
concentration of CN-Cbl ([1]; After 3 days at Room Temperature, challenge 100 mg/ml, PG 60% v/v): 97200 µg/mL
concentration of CN-Cbl ([1]; After 3 days at Room Temperature, challenge 125 mg/ml, PG 0% v/v): 14500 µg/mL
concentration of CN-Cbl ([1]; After 3 days at Room Temperature, challenge 125 mg/ml, PG 10% v/v): 20400 µg/mL
concentration of CN-Cbl ([1]; After 3 days at Room Temperature, challenge 125 mg/ml, PG 20% v/v): 23100 µg/mL
concentration of CN-Cbl ([1]; After 3 days at Room Temperature, challenge 125 mg/ml, PG 30% v/v): 28300 µg/mL
concentration of CN-Cbl ([1]; After 3 days at Room Temperature, challenge 125 mg/ml, PG 40% v/v): 38600 µg/mL
concentration of CN-Cbl ([1]; After 3 days at Room Temperature, challenge 125 mg/ml, PG 50% v/v): 46200 µg/mL
concentration of CN-Cbl ([1]; After 3 days at Room Temperature, challenge 125 mg/ml, PG 60% v/v): 78700 µg/mL
concentration of CN-Cbl ([1]; after three days at room temperature, challenge 50 mg/ml, EtOH 0% v/v): 13600 µg/mL
concentration of CN-Cbl ([1]; after three days at room temperature, challenge 50 mg/ml, EtOH 10% v/v): 20500 µg/mL
concentration of CN-Cbl ([1]; after three days at room temperature, challenge 50 mg/ml, EtOH 20% v/v): 26900 µg/mL
concentration of CN-Cbl ([1]; after three days at room temperature, challenge 50 mg/ml, EtOH 30% v/v): 40000 µg/mL
concentration of CN-Cbl ([1]; after three days at room temperature, challenge 50 mg/ml, EtOH 40% v/v): 47600 µg/mL
concentration of CN-Cbl ([1]; after three days at room temperature, challenge 75 mg/ml, EtOH 0% v/v): 15000 µg/mL
concentration of CN-Cbl ([1]; after three days at room temperature, challenge 75 mg/ml, EtOH 10% v/v): 23000 µg/mL
concentration of CN-Cbl ([1]; after three days at room temperature, challenge 75 mg/ml, EtOH 20% v/v): 26100 µg/mL
concentration of CN-Cbl ([1]; after three days at room temperature, challenge 75 mg/ml, EtOH 30% v/v): 43000 µg/mL
concentration of CN-Cbl ([1]; after three days at room temperature, challenge 75 mg/ml, EtOH 40% v/v): 53400 µg/mL
concentration of CN-Cbl ([1]; after three days at room temperature, challenge 100 mg/ml, EtOH 0% v/v): 14900 µg/mL
concentration of CN-Cbl ([1]; after three days at room temperature, challenge 100 mg/ml, EtOH 10% v/v): 24000 µg/mL
concentration of CN-Cbl ([1]; after three days at room temperature, challenge 100 mg/ml, EtOH 20% v/v): 27800 µg/mL
concentration of CN-Cbl ([1]; after three days at room temperature, challenge 100 mg/ml, EtOH 30% v/v): 34500 µg/mL
concentration of CN-Cbl ([1]; after three days at room temperature, challenge 100 mg/ml, EtOH 40% v/v): 46100 µg/mL
concentration of CN-Cbl ([1]; after three days at room temperature, challenge 125 mg/ml, EtOH 0% v/v): 14500 µg/mL
concentration of CN-Cbl ([1]; after three days at room temperature, challenge 125 mg/ml, EtOH 10% v/v): 21500 µg/mL
concentration of CN-Cbl ([1]; after three days at room temperature, challenge 125 mg/ml, EtOH 20% v/v): 28400 µg/mL
concentration of CN-Cbl ([1]; after three days at room temperature, challenge 125 mg/ml, EtOH 30% v/v): 37900 µg/mL
concentration of CN-Cbl ([1]; after three days at room temperature, challenge 125 mg/ml, EtOH 40% v/v): 50900 µg/mL
Substance: cyanocobalamin [CN-Cbl]
hygroscopicity ([2]; anhydrous form): very hygroscopic
solubility in water ([2]; 1:80 (Merck Index 1996)): ~12.5 mg/mL
